Assay results published in EP1278521B1, “N-HETEROCYCLIC SUBSTITUTED SALICYLATES FOR THE TREATMENT OF CANCER” (priority 2000, dated 2001).
“Also recorded” adds a separate entry of the source. Read-outs that look alike come from different tables or passages of the source.

How the values were obtained:
DoHH2 cells = assay: Culture growth inhibition assay using DoHH2 cells; assay type: cell-based, human; details: 1.5% FBS, 0.05 mM, at hr 45, Fig. 4
Method: (§1) Nb2 lymphoma is of a pre-T cell origin. The parental line (Nb2 U17) is non-metastatic as subcutaneous implants whereas subline Nb2-SFJCD1 is highly metastatic. Nb2-SFJCD1 cultures (doubling time = 12 - 13 hr) were maintained in Fischer's medium (Sigma-Aldrich), supplemented with 10.0 % horse gelding serum (lactogen-deficient; one batch, ICN Biomedicals, Inc., Auroro, OH), penicillin (50 U/ml) and streptomycin (50 µg/ml). In this medium the cells grow as clumps which can be readily dispersed. Nb2 lymphoma cell lines are used by a number of laboratories; the Nb2-11 subline, is available from the European Collection of Animal Cell Cultures (ECACC) in Salisbury, U.K. The Nb2-U17 and Nb2-SJFCD1 cell lines are available from Dr. Peter W. Gout, B.C. Cancer Research Centre, Vancouver, B.C., Canada. DoHH2 cell suspension cultures (doubling time ca. 20 hours) were maintained in RPMI-1640 medium (Stem Cell Technology, Vancouver, B.C., Canada) containing fetal bovine serum (5%), horse serum (5%) and antibiotics.
Assays using DoHH2 cells were similarly performed, using their maintenance medium; Cin = ca. 1.5x10^5 cells/ml (see: Kluin-Nelemans, H.C. et al. (1991) Leukemia 5:221.)

MDA-MB-231 cells = assay: Cell proliferation of MDA-MB-231 breast carcinoma cells; assay type: cell-based, human
Description: (§2) The effect of sulfasalazine on cell proliferation was subsequently assessed. […] Thus, the xc^- transporter is a target for the anti-cancer actions of sulfasalazine in human breast carcinoma.

[1] = cited from earlier work
[2] = rat, in vivo
Method: (§3) A colony of Nb rats is maintained in the British Columbia Cancer Research Centre Vancouver, B.C., Canada. Approximately equal portions of minced Nb2-U17 tumor tissue, developed subcutaneously in a rat following injection of cultured Nb2-U17 cells, were injected by trocar subcutaneously in the nape of the neck of groups of male Nb rats (one injection per rat), that had been lightly anesthetized with isoflurane (Abbott Laboratories Ltd., Montreal, Canada). […] 2 % CMC or saline were used for controls. Drug preparation and administration were carried out under subdued light conditions. Food and water were provided ad libitum. Tumor size, body weight and general health of the rats were monitored twice a day. Tumor size was measured using calipers and expressed in grams using the formula: π/6 x length x width x height in cm. […] On necropsy the animals were examined for evidence of metastatic spread with particular attention to tissues such as kidneys, liver and spleen, the target tissues of metastatic Nb2 lymphoma cells. Tissue sections were taken for histologic analysis. Non-tumor-bearing animals were used to establish maximally tolerated dosages.

[3] = tested on: Nb2-SFJCD1 rat lymphoma cells; assay: Culture growth inhibition assay in Nb2-SFJCD1 cultures; assay type: cell-based; details: for IC50: read-out: IC50 (mM) Average ± S.D.; for growth-inhibitory effect in the presence of elevated cystine: cystine at ca. 3-fold elevated levels in the culture medium, Fig. 5
Method: Solubilization of salicylhydroxamic acid and sulfasalazine involved use of 0.1 N NaOH and adjustment of the pH to 7.5-7.7 using 1 N HCl, which was added slowly to the solution swirled by a magnetic stirrer. […] All drugs were obtained from Sigma-Aldrich Canada Ltd., Oakville, ON, Canada. Drug solutions and vehicles (controls) were prepared and assayed under subdued light conditions.
as §1, with “Canada.” for “Canada. DoHH2 cell suspension cultures (doubling time ca. 20 hours) were maintained in RPMI-1640 medium (Stem Cell Technology, Vancouver, B.C., Canada) containing fetal bovine serum (5%), horse serum (5%) and antibiotics.”
Nb2-SFTCD1 cells from log phase cultures were centrifaged (3.5 min at 350xg) and gently resuspended in fresh Fisher's medium containing 10% horse gelding serum. Aliquots (1.80 ml) were distributed in 12-well tissue culture plates (Linbro, Flow Laboratories, Mississauga, ON, Canada) and preincubated for 3 - 5 hours at 37°C in a water-saturated 5% CO2/air atmosphere. Solutions of the drugs (200 µl portions) were then added to the cultures for a 45 hour incubation (Cin = 1.0x10^5 cells/ml). Cell populations were determined using an electronic counter (Coulter Electronics, Hialeah, FL).

Nb2-U17 tumor transplant = assay: Assay of tumor growth inhibition in rats; assay type: in vivo, Nb rats; details: b.i.d., 7-day period
Method: as §3

MCF-7 cells = assay: Cell proliferation of MCF-7 breast carcinoma cells; assay type: cell-based, human; details: 10 mM
Description: as §2

[4] = as reported in the literature for patients/controls undergoing treatment with the drugs
[5] = Rattus norvegicus, 45 h at 37°C, Fischer's medium containing 10.0% horse gelding serum

Which results are given for `O=C(O)c1cc(/N=N/c2ccc(S(=O)(=O)Nc3ccccn3)cc2)ccc1O` [Sulfasalazine]?
cell lysis (DoHH2 cells): extensive cell lysis; antagonism of the inhibitory actions by 2-ME (MDA-MB-231 cells; 2-ME (60µM)): completely antagonized; IC50 (MDA-MB-231 cells; Homo sapiens, MDA-MB-231): 300 ± 5 µM; Therapeutic drug levels in plasma [1, 4]: 0.08 to 0.2 mM; side effects (general health and appearance) [2]: no major side effects; minor side effect ([2]; ip): thickening of tissue at the site of the injections; growth arrest ([3]; 0.15 mM, 45 hour experiment): only partially arrested growth; IC50 [3, 5]: ~0.17 mM; growth-inhibitory effect in the presence of elevated cystine [3]: substantially reduced; growth-inhibitory activity ([3]; range 0.1 - 0.3 mM, Fig. 2): highly potent; lymphoma growth-inhibitory effect (Nb2-U17 tumor transplant; oral administration, 500 mg/kg body wt): only minor lymphoma growth-inhibitory effect

With `O=C([O-])c1ccccc1O.[Na+]` [Salicylate, sodium, sodium salicylate] as the compound, how does the “Therapeutic drug levels in plasma” value [1, 4] read?
Its value is 1 to 3 mM.

What about the IC50 ([3]; Rattus norvegicus, 45 h) of the same compound?
Its IC50 is 1.82 ± 0.12 mM.

And the inhibition at 3000 µM ([3]; Rattus norvegicus, read-out: inhibited the growth of the Nb2 cell cultures)?
The inhibition at 3000 µM was ~70%.

And the “growth-inhibitory effect in the presence of elevated cystine” value [3]?
The value was “only marginally affected”.

What about the tumor growth inhibition (Nb2-U17 tumor transplant; i.p. 150 mg/kg body wt, 150 mg/kg) of the same compound?
Its tumor growth inhibition is “did not inhibit tumor growth; also recorded: had no effect”.

Which “Therapeutic drug levels in plasma” value [1, 4] does the source give for `Nc1ccc(O)c(C(=O)O)c1` [5-aminosalicylic acid] here?
Its value is “ca. 0.01 mM”.

What does the source list for `CC(C)Cc1ccc(C(C)C(=O)O)cc1` (stereo not drawn) [Ibuprofen]?
Therapeutic drug levels in plasma ([1]; in vivo): 0.05 to 0.1 mM; inhibition at 100 µM ([3]; Rattus norvegicus, 0.1 mM (therapeutic concentration), Fig. 1, read-out: inhibited the growth of the Nb2 cell cultures): 5 to 10%; IC50 [3, 5]: 0.43 ± 0.01 mM

For `N[C@@H](CCC(=O)O)C(=O)[O-].[Na+]` [Monosodium glutamate], which inhibition of proliferation (MCF-7 cells) is on record?
The inhibition of proliferation was “to an extent similar to that observed for sulfasalazine”.

What about the “inhibition of proliferation with addition of 2-ME” value (MCF-7 cells; 2-ME added to the cultures) of the same compound?
The value was “completely negated this effect”.

With `CN1C(C(=O)Nc2ccccn2)=C(O)c2ccccc2S1(=O)=O` [Piroxicam] as the compound, how does the “Therapeutic drug levels in plasma” value ([1]; in vivo) read?
The value was 0.015 to 0.03 mM.

What about the inhibition at 30 µM ([3]; Rattus norvegicus, 0.03 mM (therapeutic concentration), Fig. 1, read-out: inhibited the growth of the Nb2 cell cultures) of the same compound?
The inhibition at 30 µM was 5 to 10%.

What about the IC50 [3, 5] of the same compound?
The IC50 was 0.3 ± 0.02 mM.

With `NC(=O)c1ccccc1O` [Salicylamide] as the compound, how does the IC50 [3, 5] read?
The IC50 was 1.34 ± 0.13 mM.

With `Nc1ccc(S(=O)(=O)Nc2ccccn2)cc1` [sulfapyridine] as the compound, how does the “Therapeutic drug levels in plasma” value [1, 4] read?
The value was 0.08 to 0.2 mM.
